Laboratory results from patent publication US20250081967A1, “PESTICIDALLY ACTIVE HETEROCYCLIC DERIVATIVES WITH SULFOXIMINE CONTAINING SUBSTITUENTS” (SYNGENTA CROP PROTECTION AG, priority 2021, published 2025).

How the values were obtained:
Format in all cases: in vivo
Bemisia tabaci = assay: Activity against Bemisia tabaci (cotton white fly), cotton leaf discs; details: foliar, 144 h, application rate 200 ppm, adult white flies, 6 days after incubation
Method: Example B6: Activity Against Bemisia tabaci (Cotton White Fly)
Cotton leaf discs were placed on agar in 24-well microtiter plates and sprayed with aqueous test solutions prepared from 10′000 ppm DMSO stock solutions. After drying the leaf discs were infested with adult white flies. The samples were checked for mortality 6 days after incubation.

Myzus persicae [1] = assay: Activity against Myzus persicae (green peach aphid), systemic activity, pea seedlings; details: Myzus persicae, 144 h, test rate 24 ppm; systemic; 6 days after placing seedlings in test solutions
Method: Example B5: Activity Against Myzus persicae (Green Peach Aphid) Systemic Activity
Roots of pea seedlings infested with an aphid population of mixed ages were placed directly in the aqueous test solutions prepared from 10′000 DMSO stock solutions. The samples were assessed for mortality 6 days after placing seedlings in test solutions.

Plutella xylostella [2] = assay: Activity against Plutella xylostella (diamond back moth), artificial diet, eggs; details: 192 h, application rate 200 ppm, 8 days after infestation, read-out: effect in at least one of the two categories (mortality or growth inhibition)
Method in brief: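 Artificial diet in wells treated with aqueous dilutions of 10′000 ppm DMSO stocks, dried, then infested with Plutella eggs. Mortality and growth inhibition scored against untreated samples 8 days after infestation.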

Euschistus heros = assay: Activity against Euschistus heros (neotropical brown stink bug), soybean leaf; details: 120 h, application rate 200 ppm, N-2 nymphs, 5 days after infestation, read-out: effect in at least one of the two categories (mortality or growth inhibition)
Method: Example B7: Activity Against Euschistus heros (Neotropical Brown Stink Bug)
Soybean leaf on agar in 24-well microtiter plates were sprayed with aqueous test solutions prepared from 10′000 ppm DMSO stock solutions. After drying the leaf were infested with N-2 nymphs. The samples were assessed for mortality and growth inhibition in comparison to untreated samples 5 days after infestation.

Tetranychus urticae = assay: Activity against Tetranychus urticae (two-spotted spider mite), bean leaf discs; details: foliar, 192 h, application rate 200 ppm, mixed population (mobile stages), 8 days after infestation
Method: Example B10: Activity Against Tetranychus urticae (Two-Spotted Spider Mite)
Bean leaf discs on agar in 24-well microtiter plates were sprayed with aqueous test solutions prepared from 10′000 ppm DMSO stock solutions. After drying the leaf discs were infested with a mite population of mixed ages. The samples were assessed for mortality on mixed population (mobile stages) 8 days after infestation.

Spodoptera littoralis = assay: Activity against Spodoptera littoralis (Egyptian cotton leaf worm), cotton leaf discs; details: foliar, 72 h, application rate 200 ppm, L1 larvae, 3 days after infestation, read-out: control (mortality, anti-feeding effect or growth inhibition)
Method in brief: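 Cotton leaf discs on agar sprayed with aqueous test solutions made from 10′000 ppm DMSO stocks, dried, then infested with five L1 larvae. Mortality, anti-feeding and growth inhibition scored versus untreated samples 3 days after infestation; control given when any category exceeds untreated.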

Myzus persicae [3] = assay: Activity against Myzus persicae (green peach aphid), feeding/contact activity, sunflower leaf discs; details: Myzus persicae, foliar, 144 h, application rate 200 ppm; feeding/contact; 6 days after infestation
Method: Example B4: Activity Against Myzus persicae (Green Peach Aphid) Feeding/Contact Activity
(§1) Sunflower leaf discs were placed on agar in a 24-well microtiter plate and sprayed with aqueous test solutions prepared from 10′000 ppm DMSO stock solutions. After drying, the leaf discs were infested with an aphid population of mixed ages. The samples were assessed for mortality 6 days after infestation.

Diabrotica balteata = assay: Activity against Diabrotica balteata (corn root worm), maize sprouts; details: 96 h, application rate 200 ppm, L2 larvae, 4 days after infestation, read-out: effect in at least one of the two categories (mortality or growth inhibition)
Method: Example B3: Activity Against Diabrotica Balteata (Corn Root Worm)
Maize sprouts placed onto an agar layer in 24-well microtiter plates were treated with aqueous test solutions prepared from 10′000 ppm DMSO stock solutions by spraying. After drying, the plates were infested with L2 larvae (6 to 10 per well). The samples were assessed for mortality and growth inhibition in comparison to untreated samples 4 days after infestation.

Plutella xylostella [4] = assay: Activity against Plutella xylostella (diamond back moth), artificial diet, L2 larvae; details: 120 h, application rate 200 ppm, 5 days after infestation, read-out: effect in at least one of the two categories (mortality or growth inhibition)
Method: Example B2: Activity Against Plutella xylostella (Diamond Back Moth)
24-well microtiter plates with artificial diet were treated with aqueous test solutions prepared from 10′000 ppm DMSO stock solutions by pipetting. After drying, the plates were infested with L2 larvae (10 to 15 per well). The samples were assessed for mortality and growth inhibition in comparison to untreated samples 5 days after infestation.

[5] = tested on: Frankliniella occidentalis; assay: Activity against Frankliniella occidentalis (western flower thrips), sunflower leaf discs; details: foliar, 168 h, application rate 200 ppm, mixed ages, 7 days after infestation
Method: Example B8: Activity Against Frankliniella occidentalis (Western Flower Thrips)
as §1, with “in” for “in a”, “plates” for “plate”, “[…]” for “10′000 ppm”, “drying” for “drying,”, “a Frankliniella” for “an aphid”, “7” for “6”

CCn1c(C(F)(F)F)cc2nc(-c3ncc(OC(C)(C)C#N)cc3S(=N)(=O)CC)n(C)c2c1=O (single isomer, unassigned) [Compound P19-A, 2-[[6-[5-ethyl-3-methyl-4-oxo-6-(trifluoromethyl)imidazo[4,5-c]pyridin-2-yl]-5-(ethylsulfonimidoyl)-3-pyridyl]oxy]-2-methyl-propanenitrile]
≥ 80%: mortality at 200 ppm (Bemisia tabaci) | mortality at 24 ppm (Myzus persicae [1]) | percent effect (mortality or growth inhibition) at 200 ppm (Plutella xylostella [2]) | percent effect (mortality or growth inhibition) at 200 ppm (Euschistus heros) | mortality at 200 ppm (Tetranychus urticae) | percent control (mortality, anti-feedant effect or growth inhibition) at 200 ppm (Spodoptera littoralis) | mortality at 200 ppm (Myzus persicae [3]) | percent effect (mortality or growth inhibition) at 200 ppm (Diabrotica balteata)

CCS(=N)(=O)c1cc(OC(C)(C)C#N)cnc1-c1nc2cc(C(F)(F)F)ncc2n1C (racemic) [Compound P13, 2-[[5-(ethylsulfonimidoyl)-6-[3-methyl-6-(trifluoromethyl)imidazo[4,5-c]pyridin-2-yl]-3-pyridyl]oxy]-2-methyl-propanenitrile]
≥ 80%: mortality at 200 ppm (Bemisia tabaci) | mortality at 24 ppm (Myzus persicae [1]) | percent effect (mortality or growth inhibition) at 200 ppm (Euschistus heros) | mortality at 200 ppm (Tetranychus urticae) | percent control (mortality, anti-feedant effect or growth inhibition) at 200 ppm (Spodoptera littoralis) | mortality at 200 ppm (Myzus persicae [3]) | percent effect (mortality or growth inhibition) at 200 ppm (Diabrotica balteata) | percent effect (mortality or growth inhibition) at 200 ppm (Plutella xylostella [4])

CCS(=N)(=O)c1cc(OC(C)(C)C#N)cnc1-c1cn2cnc(SC(F)(F)F)cc2n1 (racemic) [Compound P7, 2-[[5-(ethylsulfonimidoyl)-6-[7-(trifluoromethylsulfanyl)imidazo[1,2-c]pyrimidin-2-yl]-3-pyridyl]oxy]-2-methyl-propanenitrile]
≥ 80%: mortality at 200 ppm (Bemisia tabaci) | percent effect (mortality or growth inhibition) at 200 ppm (Plutella xylostella [2]) | percent effect (mortality or growth inhibition) at 200 ppm (Euschistus heros) | mortality at 200 ppm (Tetranychus urticae) | mortality at 200 ppm [5] | mortality at 200 ppm (Myzus persicae [3]) | percent effect (mortality or growth inhibition) at 200 ppm (Diabrotica balteata)
